Source: US8895019B2, “Biofilm treatment” (Oral Health Australia Pty Ltd, priority 2007, dated 2014)
In brackets after ≈: the same amount, converted by molar mass. Where two headings read alike, the source gives them in different places. Marks after values point to notes of the source that are not given here.

Experiments:
[1] = tested on: P. gingivalis W50; assay: Susceptibility of P. gingivalis to Frd inhibiting agents: growth in liquid culture, OD 620 nm over 50 h; assay type: cell-based, Porphyromonas gingivalis
Description: (§1) The effect of Frd inhibiting agents on P. gingivalis was carried out in liquid cultures. Briefly W50 was cultured in 200 mL BHI medium until OD of 0.6 (˜2.9×10^8 cfu/mL). The cells were then resuspended in fresh growth medium to a final concentration of 2.5×10^7 cfu/mL. Oxantel pamonate, morantel citrate and thiabendazole (Sigma) were dissolved in DMSO to achieve stock concentrations of 250 mM. 4 μL of the test solution was then mixed with 196 μL of cell suspension and transferred into 96 well flat bottom plates followed by incubation at 37° C. under anaerobic conditions and monitored hourly over a 50 h period by measuring the optical density of the culture at 620 nm using an iEMS microplate reader (Labsystems OY Research Technologies Division). Mean generation times of P. gingivalis in the presence of different inhibiting agents were calculated by […] where Nt and N0 are cells population at time t and time zero, respectively.

[2] = Solubility limit seen in the growth assay; assay type: physicochemical; conditions: growth assay medium (P. gingivalis W50 liquid culture), 37 °C, kinetic from dmso stock, read-out: insolubility (concentration above which insoluble)
Description: as §1

[3] = tested on: P. gingivalis (ATCC 33277) biofilm; assay: Viability of cells dispersed by Oxantel treatment, static 24 well biofilm assay, colony forming units; assay type: cell-based, Porphyromonas gingivalis; conditions: especially for the 12.5 μM Oxantel treated biofilm, 30 min
Description: To test the viability of cells dispersed by Oxantel treatment, a static biofilm assay was performed as described above but with slight modifications. Briefly P. gingivalis (ATCC 33277) was allowed to form biofilm in 24 well microplates after 18 h incubation. The free floating planktonic cells were first removed and the biofilm washed once with PBS. 1 mL of 125 uM or 12.5 uM of Oxantel or sterile water […] was added to each well and incubated for 30 min. The number of dispersed P. gingivalis cells that are still viable was determined by cultural analysis on horse blood agar plates after serial dilution in BHI.

[4] = tested on: P. gingivalis ATCC 33277 biofilm; assay: Flowcell biofilm culture and CLSM analysis (COMSTAT); assay type: cell-based, Porphyromonas gingivalis
From the text: The biofilm culture of P. gingivalis ATCC 33277 in flow cells was similar to that previously described with several modifications. A 3-channel flow cell system (Stovall Life Science, USA) was set up in an anaerobic chamber (MK3 Anaerobic workstation; Don Whitley Scientific Ltd.) and was modified with silicon pump tubing (Gilson, France) and stopcocks for inoculation, testing and staining of the bacterial biofilms. All parts were assembled and 0.5% sodium hypochlorite was pumped into the system and left overnight to sterilise the system. Sterile water (200 mL) was then used to flush the system before growth medium addition. The system was inoculated with 1 mL of an exponentially growing P. gingivalis diluted to 0.1 OD600. The system was incubated for 1 h prior to constant flow (0.2 mL/min) of 5× diluted BHI (Oxoid) supplemented with 0.1 g/L cysteine, 1 mg/L heamin and 1 mg/L vitamin K. […] The flow of medium was resumed for another 10 min to wash off any unbound cells due to testing. BacLight stain (Molecular Probes) was then used to stain the biofilm in situ (see below).
Confocal laser scanning microscopy (CLSM) of the bacterial biofilms was carried out on a Meta 510 Confocal Microscope with an inverted stage (Zeiss). Horizontal (xy) optodigital sections, each 2 μm thick over the entire thickness of the biofilm (z) were imaged using a 63× objective at 512×512 pixel (0.28 μm per pixel), with each frame at 143.86 μm (x)×143.86 μm (y). To determine reproducibility across the biofilm 5 images at random positions from each of two biological replicates were obtained at wavelengths of 488 nm and 568 nm for each channel. All images obtained were analysed using COMSTAT software. Microcolonies were defined as cluster of cells with >500 pixel counts.

[5] = tested on: P. gingivalis ATCC 33277; assay: Effect of Oxantel on growth of P. gingivalis ATCC 33277 in liquid culture over 50 h; assay type: cell-based; conditions: Porphyromonas gingivalis, ATCC33277; P. gingivalis ATCC 33277, growth over 50 h
[6] = tested on: P. gingivalis ATCC 33277 biofilm; assay: Biofilm formation in static 96 well model, crystal violet stain; assay type: cell-based, Porphyromonas gingivalis
Description: P. gingivalis biofilm formation over 48 h in a static 96 well model was determined as described previously. Briefly P. gingivalis ATCC 33277 cells were resuspended to a final cell density of 2.5×10^7 before mixing with the test substances followed by transferring into 96 well flat bottom plates and incubated anaerobically at 37° C. Assessment of the biofilm mass was carried out at 24 h and 48 h by washing the cells twice with 250 μL of ultra pure water to remove loosely adhered cells followed by drying at 37° C. for 3 h. The dried biofilm was then stained in a solution of 0.1% crystal violet for 15 min and washed 2 times with 250 μL ultra pure water. The crystal violet stain was then dissolved from the biofilm using a solution of 80% ethanol and 20% acetone for 2 min through repeated pipetting before transferring to a new 96 well plate for measurement of the optical density at 620 nm.

[7] = Porphyromonas gingivalis, P. gingivalis W50, growth over 50 h, read-out: MIC
[8] = 12.5 μM Oxantel vs Control, Biological Replicate 1
[9] = 12.5 μM Oxantel, Biological Replicate 1
[10] = 12.5 μM Oxantel, Biological Replicate 2, first channel
[11] = 12.6 μM Oxantel (so in the source), Biological Replicate 2, second channel
[12] = 125 μM Oxantel vs Control, Biological Replicate 1
[13] = 125 μM Oxantel, Biological Replicate 1
[14] = Biological Replicate 2, based on average of both replicates over the control sample
[15] = mature biofilm treated with Oxantel (125 μM or 12.5 μM, 30 min) vs control, P<0.01

**Q.** Which “concentration required for slight inhibitory effects on the growth” value ([1]; P. gingivalis W50, growth over 50 h) does the source give for `c1ccc2[nH]c(-c3cscn3)nc2c1` [Thiabendazole] here?
**A.** The value was “more than 1 mM”.

**Q.** What about the MIC [1, 7] of the same compound?
**A.** Its MIC is greater than 3000 µM.

**Q.** What about the solubility [2] of the same compound?
**A.** The solubility was greater than 3000 µM.

**Q.** Which “concentration with positive inhibition of growth” value ([1]; P. gingivalis W50, from the growth curves) does the source give for `CN1CCCN=C1/C=C/c1cccc(O)c1` [Oxantel] here?
**A.** Its value is “more than 15 μM”.

**Q.** And the MIC [1, 7]?
**A.** The MIC was 112 µM (≈ 24.2 µg/mL).

**Q.** And the “viability of cells released from the biofilm” value [3]?
**A.** The value was “remained viable”.

**Q.** And the Total biomass ([4]; 12.5 μM Oxantel added to 16 h biofilm, Biological Replicate 1, COMSTAT, 3-channel flow cell)?
**A.** The Total biomass was 1.26^a μm^3/μm^2.

**Q.** What about the “Average microcolony area % reduction” value [4, 8] of the same compound?
**A.** The value was 37.2%.

**Q.** What about the “Average thickness % reduction” value [4, 8] of the same compound?
**A.** Its value is 39.7%.

**Q.** What about the “Total biomass % reduction” value [4, 8] of the same compound?
**A.** Its value is 30.1%.

**Q.** What about the “Ave microcolonies (by pixel, minimum 500)” value (“Ave microcolonies” for short) [4, 9] of the same compound?
**A.** The value was 17.4.

**Q.** And the Average microcolony area [4, 9]?
**A.** The Average microcolony area was 147.65^a μm^2.

**Q.** And the Average thickness [4, 9]?
**A.** Its Average thickness is 0.70^a μm.

**Q.** And the “Surface to biovolume ratio” value [4, 9]?
**A.** Its value is 2.04^a μm^2/μm^3.

**Q.** What about the “Ave microcolonies” value [4, 10] of the same compound?
**A.** The value was 18.4.

**Q.** What about the Average microcolony area [4, 10] of the same compound?
**A.** The Average microcolony area was 119.571^a μm^2.

**Q.** And the Average thickness [4, 10]?
**A.** Its Average thickness is 0.911^a μm.

**Q.** What about the “Surface to biovolume ratio” value [4, 10] of the same compound?
**A.** The value was 2.331^a μm^2/μm^3.

**Q.** What about the Total biomass [4, 10] of the same compound?
**A.** The Total biomass was 1.451^a μm^3/μm^2.

**Q.** And the “Ave microcolonies” value [4, 11]?
**A.** The value was 19.2.

**Q.** What about the Average microcolony area [4, 11] of the same compound?
**A.** The Average microcolony area was 104.881^a μm^2.

**Q.** And the Average thickness [4, 11]?
**A.** Its Average thickness is 0.891^a μm.

**Q.** What about the “Surface to biovolume ratio” value [4, 11] of the same compound?
**A.** Its value is 2.541^a μm^2/μm^3.

**Q.** And the Total biomass [4, 11]?
**A.** The Total biomass was 1.621^a μm^3/μm^2.

**Q.** And the Total biomass ([4]; 125 μM Oxantel added to 16 h biofilm, Biological Replicate 1)?
**A.** Its Total biomass is 1.00^a μm^3/μm^2.

**Q.** What about the “Average microcolony area % reduction” value [4, 12] of the same compound?
**A.** The value was 50.94%.

**Q.** And the “Average thickness % reduction” value [4, 12]?
**A.** The value was 63.2%.

**Q.** What about the “Total biomass % reduction” value [4, 12] of the same compound?
**A.** The value was 44.4%.

**Q.** And the “Ave microcolonies” value [4, 13]?
**A.** The value was 20.8.

**Q.** What about the Average microcolony area [4, 13] of the same compound?
**A.** The Average microcolony area was 115.42^a μm^2.

**Q.** And the Average thickness [4, 13]?
**A.** Its Average thickness is 0.43^a μm.

**Q.** What about the “Surface to biovolume ratio” value [4, 13] of the same compound?
**A.** Its value is 2.27^b μm^2/μm^3.

**Q.** What about the “Average microcolony area % reduction” value [4, 14] of the same compound?
**A.** The value was 37.9%.

**Q.** And the “Average thickness % reduction” value [4, 14]?
**A.** The value was 49.9%.

**Q.** What about the “Total biomass % reduction” value [4, 14] of the same compound?
**A.** Its value is 42.8%.

**Q.** What about the number of microcolonies ([4]; Oxantel treated vs control samples) of the same compound?
**A.** Its number of microcolonies is “no significant difference”.

**Q.** What about the biofilm depth [4, 15] of the same compound?
**A.** The biofilm depth was “significant reduction”.

**Q.** What about the size of microcolonies [4, 15] of the same compound?
**A.** Its size of microcolonies is “significant reduction”.

**Q.** And the MIC [5]?
**A.** Its MIC is 125 µM (≈ 27 µg/mL).

**Q.** What about the “concentration that significantly reduced the biofilm mass at 24 h” value ([6]; ATCC 33277, 24 h biofilm, subMIC) of the same compound?
**A.** Its value is no less than 0.1 µM.

**Q.** And the “concentration necessary for an inhibitory effect on the biofilm mass at 48 h” value ([6]; ATCC 33277, 48 h biofilm)?
**A.** Its value is no less than 3.9 µM.

**Q.** What does the source list for `Cc1ccsc1/C=C/C1=NCCCN1C` [Morantel]?
**A.** MIC ([1]; P. gingivalis W50, growth over 50 h, read-out: MIC): 2800 µM (≈ 617 µg/mL); MIC ([1]; Porphyromonas gingivalis, W50, 50 h, P. gingivalis W50, growth over 50 h): ~3000 µM (≈ 661 µg/mL)
